Counter-ions that a name gives are not always drawn. Like-named read-outs stand apart in the source and are kept apart here.
Key:
[1] = tested on: carragenine oedema, rat's foot; experiment: anti-inflammatory oedema test by injecting carragenine into a rat's foot (Winter, Ribley and Nuss); assay type: in vivo
Description: Winter, E. Ribley and G. Nuss--Proc. Soc. Exper. Biol. Med., 1962, 111, 544 547.
The products were administered orally in suspension in a Tween-water mixture 2 hours before the experiment. All the administered compounds have a good anti-inflammatory activity. It will particularly be noted that the compound of Example 14 has a DE50 of 3 mg/kg.

in vivo = details: mouse, in vivo, po
Description: (§1) A toxicity study was carried out on conventional mice weighing about 20 grams.
(§2) The compounds corresponding to the general formula I according to the present invention and the pharmaceutically acceptable salts thereof were administered orally. The DL50 was calculated according to the method by L. C. Miller and M. L. Tainter--Proc. Soc. Exper.

[2] = tested on: pain (phenyl benzoquinone injection); experiment: pain-killing activity according to Siegmund (phenyl benzoquinone injection); assay type: in vivo; details: oral, 30 minutes before injection of phenyl benzoquinone; read-out: DE50 (pain-killing activity)
Description: The pain-killing activity was studied according to Siegmund--J. Pharm. Exptl. ther., 1957, 119,453.
The compounds according to the present invention were administered orally 30 minutes before the injection of phenyl benzoquinone.

conventional mice = experiment: in vivo; details: p.o.; comparison products
Description: as §1, §2

[3] = Rattus norvegicus, po, read-out: DE50 (carragenine)
[4] = Rattus norvegicus, po, comparison products, read-out: DE50 (carragenine)

Compound: CC(=O)Oc1ccccc1C(=O)O [Aspirin]
- ED50 [1, 3]: 135 mg/kg

Compound: CC(C(=O)OCC(=O)N1CCN(C)CC1)c1ccc(-c2ccccc2Cl)cc1 (stereo not drawn) [Example 12, 2-(4-methylpiperazino)-2-oxoethyl 2-(2'-chloro-4-biphenylyl)propionate hydrochloride]
- LD50 (in vivo): > 500 mg/kg
- ED50 [2]: 7 mg/kg

Compound: CC(C(=O)OCC(=O)N1CCC(c2ccccc2)CC1)c1ccc(-c2ccccc2Cl)cc1 (stereo not drawn) [Example 14, 2-(4-phenylpiperidino)-2-oxoethyl 2-(2'-chloro-4-biphenylyl)propionate]
- ED50 ([1]; rat, oral suspension in Tween-water, 2 hours before the experiment, read-out: DE50 (anti-inflammatory activity)): 3 mg/kg
- LD50 (in vivo): > 500 mg/kg
- ED50 [2]: 5 mg/kg

Compound: CC(C)Cc1ccc(C(C)C(=O)O)cc1 (stereo not drawn) [Ibuprofen]
- ED50 [1, 4]: 14 mg/kg

Compound: COc1ccc2c(c1)c(CC(=O)O)c(C)n2C(=O)c1ccc(Cl)cc1 [Indometacine]
- ED50 [1, 3]: 4 mg/kg
- LD50 (conventional mice): 20 mg/kg

Compound: COc1ccc2cc([C@H](C)C(=O)O)ccc2c1 [Naproxen]
- ED50 [1, 4]: 5 mg/kg

Compound: Phenylbutanone
- DE50 (carragenine) ([1]; p.o., comparison products): 30 mg/kg
- LD50 (conventional mice): 400 mg/kg

Source: patent US4510142A, “Derivatives of biphenyl alkyl carboxylates and their use as medicaments” (Pierre Fabre S.A., priority 1981, dated 1985)
